Source: US6355799B1, “Substituted benzene compounds, process for their preparation, and herbicidal and defoliant compositions containing them” (ISK Americas Incorporated, priority 1997, dated 2002)

Legend:
Type in all cases: in vivo
[1] = test system: green foxtail (Setaria viridis, SETVI); experiment: Post-emerge test, greenhouse herbicide activity screening; conditions: 14 days after application; for Post-emerge Herbicidal Activity SETVI: phytotoxicity rating 0-100 (0 no damage, 100 complete death); for phytotoxicity rating SETVI: post-emerge, rating scale 0-100
In short: (§1)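 Applied at 15–1000 g ai/ha from acetone in 187 l/ha spray volume. Post-emergence applications included 0.25% v/v non-ionic surfactant and reached plants sown 8–21 days before. Pre-emergence applications were incorporated by surface watering. Efficacy or crop damage was rated on a 0–100 scale after 14 days.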

[2] = test system: ivyleaf morningglory (Ipomoea hederacea, IPOHE); experiment: as above; conditions: 14 days after application; for Post-emerge Herbicidal Activity IPOHE: phytotoxicity rating 0-100 (0 no damage, 100 complete death); for phytotoxicity rating IPOHE: post-emerge, rating scale 0-100
In short: as §1

[3] = test system: barnyardgrass (Echinochloa crus-galli, ECHCG); experiment: as above; conditions: 14 days after application; for Post-emerge Herbicidal Activity ECHCG: phytotoxicity rating 0-100 (0 no damage, 100 complete death); for phytotoxicity rating ECHCG: post-emerge, rating scale 0-100
In short: as §1

[4] = test system: velvetleaf (Abutilon theophrasti, ABUTH); experiment: as above; conditions: 14 days after application; for Post-emerge Herbicidal Activity ABUTH: phytotoxicity rating 0-100 (0 no damage, 100 complete death); for phytotoxicity rating ABUTH: post-emerge, rating scale 0-100
In short: as §1

[5] = test system: redroot pigweed (Amaranthus retroflexus, AMARE); experiment: as above; conditions: 14 days after application; for Post-emerge Herbicidal Activity AMARE: phytotoxicity rating 0-100 (0 no damage, 100 complete death); for phytotoxicity rating AMARE: post-emerge, rating scale 0-100
In short: as §1

[6] = test system: lambsquarters (Chenopodium album, CHEAL); experiment: as above; conditions: 14 days after application; for Post-emerge Herbicidal Activity CHEAL: phytotoxicity rating 0-100 (0 no damage, 100 complete death); for phytotoxicity rating CHEAL: post-emerge, rating scale 0-100
In short: as §1

[7] = test system: sicklepod (Cassia obtusifolia, CASOB); experiment: as above; conditions: 14 days after application; for Post-emerge Herbicidal Activity CASOB: phytotoxicity rating 0-100 (0 no damage, 100 complete death); for phytotoxicity rating CASOB: post-emerge, rating scale 0-100
In short: as §1

[8] = test system: johnsongrass (Sorghum halepense, SORHA); experiment: as above; conditions: 14 days after application; for Post-emerge Herbicidal Activity SORHA: phytotoxicity rating 0-100 (0 no damage, 100 complete death); for phytotoxicity rating SORHA: post-emerge, rating scale 0-100
In short: as §1

[9] = test system: large crabgrass (Digitaria sanguinalis, DIGSA); experiment: as above; conditions: 14 days after application; for Post-emerge Herbicidal Activity DIGSA: phytotoxicity rating 0-100 (0 no damage, 100 complete death); for phytotoxicity rating DIGSA: post-emerge, rating scale 0-100
In short: as §1

[10] = test system: common ragweed (Ambrosia artemisizfolia L., AMBEL); experiment: as above; conditions: post-emerge, 14 days after application, rating scale 0-100
In short: as §1

[11] = test system: field corn (Zea mays L., var. Dekalb 535, CORN); experiment: Pre-emerge test, crop safety; conditions: pre-emerge, rated 14 days after application, 0 = no damage, 100 = complete death
In short: (§2)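 Visual ratings on a 0-100 scale (0 no damage, 100 all plants dead) were taken at 14 days after treatment. Rates of 15-1000 g ai/ha in acetone, 187 l/ha, were sprayed onto soil one day after planting (pre-emerge) or onto 2-3 leaf plants with 0.25% v/v surfactant (post-emerge).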

[12] = test system: upland rice (Oryza sp., var. Tebonnet, RICE); experiment: Pre-emerge test, crop safety; conditions: pre-emerge, rated 14 days after application, 0 = no damage, 100 = complete death
In short: as §2

[13] = test system: green foxtail (Setaria viridis, SETVI); experiment: Pre-emerge test, greenhouse herbicide activity screening; conditions: pre-emerge, rated 14 days after application, 0 = no damage, 100 = complete death
In short: (§3)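 Herbicidal damage is scored 0 (none) to 100 (complete plant death) two weeks after a simulated field spray. Rates span 15–1000 g ai/ha, delivered in acetone at 187 l/ha. For post-emergence treatments, plants have 2–3 leaves and the spray carries 0.25% v/v non-ionic surfactant.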

[14] = test system: ivyleaf morningglory (Ipomoea hederacea, IPOHE); experiment: as above; conditions: pre-emerge, rated 14 days after application, 0 = no damage, 100 = complete death
In short: as §3

[15] = test system: barnyardgrass (Echinochloa crus-galli, ECHCG); experiment: as above; conditions: pre-emerge, rated 14 days after application, 0 = no damage, 100 = complete death
In short: as §3

[16] = test system: velvetleaf (Abutilon theophrasti, ABUTH); experiment: as above; conditions: pre-emerge, rated 14 days after application, 0 = no damage, 100 = complete death
In short: as §3

[17] = test system: lambsquarters (Chenopodium album, CHEAL); experiment: as above; conditions: pre-emerge, rated 14 days after application, 0 = no damage, 100 = complete death
In short: as §3

[18] = test system: sicklepod (Cassia obtusifolia, CASOB); experiment: as above; conditions: pre-emerge, rated 14 days after application, 0 = no damage, 100 = complete death
In short: as §3

[19] = test system: johnsongrass (Sorghum halepense, SORHA); experiment: as above; conditions: pre-emerge, rated 14 days after application, 0 = no damage, 100 = complete death
In short: as §3

[20] = test system: large crabgrass (Digitaria sanguinalis, DIGSA); experiment: as above; conditions: pre-emerge, rated 14 days after application, 0 = no damage, 100 = complete death
In short: as §3

[21] = test system: redroot pigweed (Amaranthus retroflexus, AMARE); experiment: as above; conditions: pre-emerge, rated 14 days after application, 0 = no damage, 100 = complete death
In short: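 Sandy loam pots; pre-emerge: sown 1 d pre-spray, surface-watered after, then bottom-watered. Post-emerge: sown 8–21 d before, 2–3 leaf stage, + 0.25% v/v NIS, bottom-watered. Acetone, 187 l/ha track spray, 15–1000 g ai/ha. 0–100 injury score, day 14.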

[22] = test system: field corn (Zea mays L., var. Dekalb 535, CORN); experiment: Post-emerge test, crop safety; conditions: 14 days after application; for Post-emerge Herbicidal Activity CORN (crop damage): phytotoxicity rating 0-100 (0 no damage, 100 complete death); for phytotoxicity rating CORN: post-emerge, rating scale 0-100
In short: as §3

[23] = test system: upland rice (Oryza sp., var. Tebonnet, RICE); experiment: Post-emerge test, crop safety; conditions: 14 days after application; for Post-emerge Herbicidal Activity RICE (crop damage): phytotoxicity rating 0-100 (0 no damage, 100 complete death); for phytotoxicity rating RICE: post-emerge, rating scale 0-100
In short: as §3

COc1c(Cl)cc(F)c(-n2c(=O)cc(C(F)(F)F)n(C)c2=O)c1NC(=O)CC#N [2-14]
90: phytotoxicity rating IPOHE ([2]; 250 g ai/ha) | Post-emerge Herbicidal Activity ABUTH ([4]; 63 g ai/ha) | phytotoxicity rating AMBEL ([10]; 250 g ai/ha) | Pre-emerge Herbicidal Activity ABUTH (phytotoxicity rating, scale 0-100) ([16]; 63 g ai/ha) | phytotoxicity rating RICE ([23]; 250 g ai/ha)
30: phytotoxicity rating ECHCG ([3]; 63 g ai/ha) | Post-emerge Herbicidal Activity CHEAL ([6]; 63 g ai/ha) | Pre-emerge crop damage RICE (phytotoxicity rating, scale 0-100) ([12]; 250 g ai/ha) | Pre-emerge Herbicidal Activity SORHA (phytotoxicity rating, scale 0-100) ([19]; 250 g ai/ha) | Post-emerge Herbicidal Activity RICE (crop damage) ([23]; 250 g ai/ha)
85: phytotoxicity rating AMARE ([5]; 63 g ai/ha)
50: phytotoxicity rating SETVI ([1]; 250 g ai/ha) | Pre-emerge Herbicidal Activity CHEAL (phytotoxicity rating, scale 0-100) ([17]; 63 g ai/ha) | Pre-emerge Herbicidal Activity AMARE (phytotoxicity rating, scale 0-100) ([21]; 63 g ai/ha) | phytotoxicity rating CORN ([22]; 63 g ai/ha)
40: Post-emerge Herbicidal Activity IPOHE ([2]; 63 g ai/ha) | phytotoxicity rating ECHCG ([3]; 250 g ai/ha) | Post-emerge Herbicidal Activity AMARE ([5]; 63 g ai/ha) | Post-emerge Herbicidal Activity CHEAL ([6]; 250 g ai/ha) | phytotoxicity rating CASOB ([7]; 63 g ai/ha)
10: Post-emerge Herbicidal Activity CASOB ([7]; 63 g ai/ha) | Post-emerge Herbicidal Activity CASOB ([7]; 250 g ai/ha) | phytotoxicity rating DIGSA ([9]; 63 g ai/ha) | Post-emerge Herbicidal Activity CORN (crop damage) ([22]; 250 g ai/ha) | Post-emerge Herbicidal Activity RICE (crop damage) ([23]; 63 g ai/ha)
100: phytotoxicity rating ABUTH ([4]; 63 g ai/ha) | phytotoxicity rating ABUTH ([4]; 250 g ai/ha) | phytotoxicity rating AMARE ([5]; 250 g ai/ha) | phytotoxicity rating CHEAL ([6]; 250 g ai/ha) | Pre-emerge Herbicidal Activity SETVI (phytotoxicity rating, scale 0-100) ([13]; 250 g ai/ha) | Pre-emerge Herbicidal Activity IPOHE (phytotoxicity rating, scale 0-100) ([14]; 250 g ai/ha) | Pre-emerge Herbicidal Activity ABUTH (phytotoxicity rating, scale 0-100) ([16]; 250 g ai/ha) | Pre-emerge Herbicidal Activity CHEAL (phytotoxicity rating, scale 0-100) ([17]; 250 g ai/ha) | Pre-emerge Herbicidal Activity AMARE (phytotoxicity rating, scale 0-100) ([21]; 250 g ai/ha)
0: Post-emerge Herbicidal Activity SETVI ([1]; 63 g ai/ha) | Post-emerge Herbicidal Activity SETVI ([1]; 250 g ai/ha) | Post-emerge Herbicidal Activity ECHCG ([3]; 63 g ai/ha) | Post-emerge Herbicidal Activity ECHCG ([3]; 250 g ai/ha) | Post-emerge Herbicidal Activity SORHA ([8]; 63 g ai/ha) | Post-emerge Herbicidal Activity SORHA ([8]; 250 g ai/ha) | Post-emerge Herbicidal Activity DIGSA ([9]; 63 g ai/ha) | Post-emerge Herbicidal Activity DIGSA ([9]; 250 g ai/ha) | Pre-emerge crop damage CORN (phytotoxicity rating, scale 0-100) ([11]; 63 g ai/ha) | Pre-emerge crop damage CORN (phytotoxicity rating, scale 0-100) ([11]; 250 g ai/ha) | Pre-emerge crop damage RICE (phytotoxicity rating, scale 0-100) ([12]; 63 g ai/ha) | Pre-emerge Herbicidal Activity IPOHE (phytotoxicity rating, scale 0-100) ([14]; 63 g ai/ha) | Pre-emerge Herbicidal Activity ECHCG (phytotoxicity rating, scale 0-100) ([15]; 63 g ai/ha) | Pre-emerge Herbicidal Activity ECHCG (phytotoxicity rating, scale 0-100) ([15]; 250 g ai/ha) | Pre-emerge Herbicidal Activity CASOB (phytotoxicity rating, scale 0-100) ([18]; 63 g ai/ha) | Pre-emerge Herbicidal Activity SORHA (phytotoxicity rating, scale 0-100) ([19]; 63 g ai/ha) | Pre-emerge Herbicidal Activity DIGSA (phytotoxicity rating, scale 0-100) ([20]; 63 g ai/ha) | Post-emerge Herbicidal Activity CORN (crop damage) ([22]; 63 g ai/ha)
95: Post-emerge Herbicidal Activity ABUTH ([4]; 250 g ai/ha)
20: phytotoxicity rating SETVI ([1]; 63 g ai/ha) | phytotoxicity rating SORHA ([8]; 63 g ai/ha) | phytotoxicity rating SORHA ([8]; 250 g ai/ha) | phytotoxicity rating DIGSA ([9]; 250 g ai/ha) | Pre-emerge Herbicidal Activity DIGSA (phytotoxicity rating, scale 0-100) ([20]; 250 g ai/ha)
70: phytotoxicity rating IPOHE ([2]; 63 g ai/ha) | Post-emerge Herbicidal Activity AMARE ([5]; 250 g ai/ha) | phytotoxicity rating CASOB ([7]; 250 g ai/ha)
80: Post-emerge Herbicidal Activity IPOHE ([2]; 250 g ai/ha) | phytotoxicity rating CHEAL ([6]; 63 g ai/ha)
60: phytotoxicity rating AMBEL ([10]; 63 g ai/ha) | Pre-emerge Herbicidal Activity SETVI (phytotoxicity rating, scale 0-100) ([13]; 63 g ai/ha) | Pre-emerge Herbicidal Activity CASOB (phytotoxicity rating, scale 0-100) ([18]; 250 g ai/ha) | phytotoxicity rating CORN ([22]; 250 g ai/ha) | phytotoxicity rating RICE ([23]; 63 g ai/ha)
